These results are taken from paper PMC4856274, “Mnn10 Maintains Pathogenicity in Candida albicans by Extending α-1,6-Mannose Backbone to Evade Host Dectin-1 Mediated Antifungal Immunity” (PLoS Pathogens, 2016).

SMILES strings stand for the structures.

The assay deals with T1, Mnn10 (MBP-fused Mnn10) (Candida albicans, UniProt Q59UR2).
T1 construct: non-transmembrane region, residues 70-335, MBP fusion (pMAL-p5X), E. coli BL21 (DE3) pLysS, amylose resin; tag kept
Put plainly: mannosyltransferase assay, ANTS labelling of products, FACE gel. Particulars: 10 mM α-1,6-D-mannobiose, 5 mM GDP-D-mannose, 10 mM MnCl2, 50 mM HEPES pH 7.2, 30 °C, 1 h. Format: biochemical.

T1 sequence (Q59UR2 entry or part of it): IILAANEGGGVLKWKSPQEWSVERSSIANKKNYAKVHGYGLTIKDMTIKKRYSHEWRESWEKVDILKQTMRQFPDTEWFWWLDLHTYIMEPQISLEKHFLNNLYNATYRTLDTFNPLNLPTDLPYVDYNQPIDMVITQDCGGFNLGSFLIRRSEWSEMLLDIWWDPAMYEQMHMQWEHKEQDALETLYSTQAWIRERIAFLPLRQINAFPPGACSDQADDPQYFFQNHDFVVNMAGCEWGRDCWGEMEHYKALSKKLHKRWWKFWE

As to `OC[C@H]1O[C@H](OC[C@H]2OC(O)[C@@H](O)[C@@H](O)[C@@H]2O)[C@@H](O)[C@@H](O)[C@@H]1O` (stereo partly drawn) [α-1,6-mannobiose], the “mannosyltransferase assay, ANTS labelling of products, FACE gel” value (acceptor) was “required α-1,6-linked mannobiose as an acceptor and GDP-mannose as a donor”.

On to `Nc1nc2c(ncn2[C@@H]2O[C@H](COP(=O)(O)OP(=O)(O)O[C@H]3O[C@H](CO)[C@@H](O)[C@H](O)[C@@H]3O)[C@@H](O)[C@H]2O)c(=O)[nH]1` [GDP-mannose], for which, for the setting “donor”, the “mannosyltransferase assay, ANTS labelling of products, FACE gel” value is “Mnn10 catalyzes the transformation of GDP-mannose to α-1,6-mannobiose to form mannotriose and mannotetraose”.
